Measured values from patent US20150258043A1, “USE OF SPHINGOID LONG CHAIN BASES AND THEIR ANALOGS IN TREATING AND PREVENTING BACTERIAL INFECTIONS” (YEDA RESEARCH AND DEVELOPMENT CO. LTD., priority 2012, published 2015).
Entries after “also recorded” stand apart in the source; their conditions may differ. Where two headings read alike, the source gives them in different places. Each block holds one compound with its values, some of them ahead of it.

Columns and labels:
P. aeruginosa strain 762 = test: Effect of LCBs on P. aeruginosa growth in vitro (colony counts); type: cell-based, Pseudomonas aeruginosa; conditions: for inhibition of P. aeruginosa growth in vitro (in words): concentrations up to 50 μM
Description: P. aeruginosa strain 762 or ATCC 27853 were grown in LB medium at 37° C. until the early logarithmic phase (OD550 0.2). Bacteria were then diluted in PBS to a concentration of 5×10^3 CFU/ml. Stock solutions of sphingolipids (5 mM in 7.5% n-Octyl-β-D-Glucopyranoside (OGP) or in DMSO were prepared by sonication. Sphingolipids were added to the bacteria (0.1-50 μM in 0.075% OGP or 1% DMSO). Bacteria were incubated with sphingolipids for 2 hr at 37° C. and a sample of 200 μl bacteria solution were plated on LB agar plates, incubated overnight at 37° C. and colonies were counted.
The direct effect of sphingosine and other sphingoid long chain bases (LCBs) on the growth of P. aeruginosa was examined in vitro. Bacteria were incubated with a variety of LCBs and the EC50 values on bacterial growth were determined (Table 1).

[1] = superscript reference mark; cited from earlier work
[2] = Pseudomonas aeruginosa, P. aeruginosa strain 762, 2 hrs at 37° C. in 0.075% OGP, colonies counted, at least 3 independent experiments, read-out: EC50 (μM) ± S.D.
[3] = Pseudomonas aeruginosa, 762, Table 3, Example 3, method of Example 2, n=3 for each analog, given as ranges, read-out: EC50
[4] = Pseudomonas aeruginosa, Table 2 non-inhibitors, strain 762, up to 50 μM in 0.075% OGP, 2 hrs at 37° C., read-out: EC50

Compound: CCCC[C@@H](C)[C@@H](OC(=O)C[C@@H](CC(=O)O)C(=O)O)[C@H](C[C@@H](C)C[C@H](O)CCCC[C@@H](O)C[C@H](O)[C@H](C)N)OC(=O)C[C@@H](CC(=O)O)C(=O)O (stereo in doubt) [FB1, fumonisin B1, reference compound]
EC50 (P. aeruginosa strain 762; Pseudomonas aeruginosa, 762): > 50 µM
inhibition of P. aeruginosa growth in vitro (in words) (P. aeruginosa strain 762): without effect; also recorded: did not inhibit growth of the bacteria at all
pKa (in PBS) [1]: >9^4

Compound: CCCC[C@@H](C)[C@@H](OC(=O)C[C@@H](CC(=O)O)C(=O)O)[C@H](C[C@@H](C)C[C@H](O)CCCC[C@@H](O)C[C@H](O)[C@H](C)N)OC(=O)C[C@@H](CC(=O)O)C(=O)O [FB1, fumonisin B1, reference compound]
EC50 (P. aeruginosa strain 762; Pseudomonas aeruginosa, 762, 2 h): > 50 µM

Compound: CCCCCCCCCCCCC/C=C/[C@H](O)[C@H](N)COP(=O)(O)O (stereo in doubt) [Sphingosine-1-P, sphingosine-1-phosphate, reference compound]
EC50 (P. aeruginosa strain 762; [3]): > 50 µM
EC50 (P. aeruginosa strain 762; [4]): > 50 µM
inhibition of P. aeruginosa growth in vitro (in words) (P. aeruginosa strain 762): without effect
inhibition of P. aeruginosa growth in vitro (in words) (P. aeruginosa strain 762; listed as sphingosine-1-phosphate (S1P)): did not inhibit growth of the bacteria at all

Compound: CCCCCCCCCCCCC/C=C/[C@@H](O)[C@H](CO)NC [Monomethyl D-erythro-Sphingosine, Monomethyl D-erythro-sphingosine]
EC50 (P. aeruginosa strain 762; [2]): 1.9 ± 0.1 µM

Compound: CCCCCCCCCCCCC/C=C/[C@@H](O)[C@H](N)CO (stereo in doubt) [L-threo-sphingosine]
EC50 (P. aeruginosa strain 762; [3]): 0.5 to 1 µM
EC50 (P. aeruginosa strain 762; [2]): 0.6 ± 0.2 µM

Compound: CCCCCCCCCCCCC/C=C/[C@@H](O)CN [1-desoxymethyl sphingosine, 1-desoxymethylsphingosine]
EC50 (P. aeruginosa strain 762; [2]): 0.7 ± 0.1 µM

Compound: CCCCCCCCCCCCC/C=C/[C@@H](O)[C@@H](N)CO [L-erythro-sphingosine]
EC50 (P. aeruginosa strain 762; [2]): 0.8 ± 0.1 µM

Compound: CCCCCCCCCCCCC/C=C/[C@H](O)[C@@H](C)N [1-deoxy-D-erythro-sphingosine]
EC50 (P. aeruginosa strain 762; [2]): 0.9 ± 0.1 µM

Compound: CCCCCCCCCCCCCCC[C@@H](O)[C@H](CO)NC(C)=O [N-acetyl-D-erythro-dihydrosphingosine]
EC50 (P. aeruginosa strain 762; [4]): > 50 µM
inhibition of P. aeruginosa growth in vitro (in words) (P. aeruginosa strain 762): reduces the activity

Compound: CCCCCCCCCCCCCCC[C@@H](O)[C@H](N)CO (stereo in doubt) [L-threo-dihydrosphingosine (Safingol), L-threo-dihydrosphingosine (L-threo-sphinganine)]
EC50 (P. aeruginosa strain 762; [3]): 0.5 to 1 µM
EC50 (P. aeruginosa strain 762; [2]): 0.4 µM
inhibition of P. aeruginosa growth in vitro (in words) (P. aeruginosa strain 762; listed as L-threo-dihydrosphingosine): inhibits as well as the natural occurring D-erythro enantiomer
inhibition of P. aeruginosa growth in vitro (in words) (P. aeruginosa strain 762; listed as L-threo-sphinganine): more potent than the neutral ones

Compound: CCCCCCCCCCCCCCC[C@H](O)[C@@H](C)N [1-deoxy-D-erythro-dihydrosphingosine]
EC50 (P. aeruginosa strain 762; [2]): 0.7 µM

More lines, main results first:

EC50 (P. aeruginosa strain 762; [2]): 0.3 µM
Compound: CCCCCCCCCCCCCCC/C=C/[C@H](O)[C@H](N)CO [D-erythro-C20-Sphingosine, D-erythro-C20-sphingosine]
inhibition of P. aeruginosa growth in vitro (in words) (P. aeruginosa strain 762): more potent than C18-sphingosine

EC50 (P. aeruginosa strain 762; [2]): 0.9 µM
Compound: CCCCCCCCCCCCCC[C@@H](O)[C@@H](O)[C@@H](N)CO [Phyto-sphingosine, 4-D-hydroxysphinganine (phytosphingosine)]
category as bacterial growth inhibitor (P. aeruginosa strain 762; classes by EC50): strong inhibitor

EC50 (P. aeruginosa strain 762; [2]): 1 ± 0.2 µM
Compound: CCCCCCCCCCC/C=C/[C@H](O)[C@H](N)CO [D-erythro-C16-Sphingosine, D-erythro-C16-sphingosine]

EC50 (P. aeruginosa strain 762; [2]): 0.5 ± 0.1 µM
Compound: CCCCCCCCCCCCCCC[C@H](O)[C@@H](N)CO [D-threo-dihydrosphingosine, D-threo-dihydrosphingosine (D-threo-sphinganine)]

EC50 (P. aeruginosa strain 762; [4]): > 50 µM
Compound: CCCCCCCCC/C=C/[C@H](O)[C@H](N)CO [D-erythro-C14-Sphingosine]

EC50 (P. aeruginosa strain 762; [2]): 0.8 ± 0.1 µM
Compound: CCCCCCCCCCCCCCC[C@@H](O)[C@@H](N)CO [L-erythro-dihydrosphingosine, L-erythro-dihydrosphingosine (L-erythro-sphinganine)]

EC50 (P. aeruginosa strain 762; [3]): 1 to 5 µM
EC50 (P. aeruginosa strain 762; [2]): 2.2 ± 1.4 µM
Compound: CCCCCCCCCCCCC/C=C/[C@H](O)[C@H](N)CO[C@@H]1O[C@H](CO)[C@H](O)[C@H](O)[C@H]1O (stereo in doubt) [Galactosyl Sphingosine (Psychosine), Galactosyl D-erythro-sphingosine (psychosine)]

EC50 (P. aeruginosa strain 762; [2]): 0.5 µM
Compound: CCCCCCCCCCCCC/C=C/C[C@H](N)CO [3-deoxy-D-erythro-sphingosine]

EC50 (P. aeruginosa strain 762; [3]): 5 to 50 µM
Compound: CCCCCCCCc1ccc(CC[C@](N)(CO)CCP(=O)(O)O)cc1 [(R)-FTY-phosphonate]

EC50 (P. aeruginosa strain 762; [3]): 0.5 to 1 µM
EC50 (P. aeruginosa strain 762; [2]): 0.6 ± 0.5 µM
Compound: CCCCCCCCCCCCCCC[C@@H](O)[C@@H](N)CO [D-erythro-dihydrosphingosine, (2S,3R)-2-aminooctadecane-1,3-diol]

EC50 (P. aeruginosa strain 762; [2]): 0.6 ± 0.1 µM
Compound: CCCCCCCCCCCCC/C=C/[C@H](O)[C@@H](N)CO [D-threo-sphingosine]

EC50 (P. aeruginosa strain 762; [4]): > 50 µM
Compound: CCCCCCC/C=C/[C@@H](O)[C@@H](N)CO [D-erythro-C12-Sphingosine]
